Values joined by “and” are separate entries in the source; they are usually repeats but may differ in a detail not shown here. Identical values can stand only once.
Tests used:
[1] = Strontium blood levels by Inductively Coupled Plasma Mass Spectrometry; settings: for maximum strontium blood level: 10-15 g strontium salt daily split morning and evening plus 50 g Aquamin daily as top dressing for 14 days, blood drawn in the morning before feeding, individual horses
Procedure: Approximately 4 months into the trial, strontium blood levels were measured in a small group of horses. […] (Li et al., 2009). To measure strontium blood levels, Inductively Coupled Plasma Mass Spectrometry was used (Eurofins Lab, (Wisconsin USA)).
A group of six horses were utilized and were administered the subject compositions for 14 days total. The compositions were added to morning and evening feed as a top dressing. All subjects received 50 g of “Aquamin” daily given as 25 g in morning and 25 g in evening. Three horses received Strontium ranelate at 10 g, 12 g, and 15 g daily split between the morning and evening. Three horses received Strontium citrate at 10 g, 12 g, and 14 g daily split morning and evening. Blood samples were taken a day 0, 1, 5, 8, 12, and 15 days. Bloods were drawn first thing in the morning before any supplements were fed.

[2] = human, receiving 2 grams per day (AusProtos, 2013); cited from earlier work

| Compound | maximum strontium blood level [1] | strontium blood levels compared with strontium ranelate ([1]; six-horse 14 day study with 50 g Aquamin daily) | strontium blood levels [2] [µmol/L] |
| --- | --- | --- | --- |
| strontium citrate | 9.3 µmol/L and 9.5 µmol/L | comparable |  |
| N#Cc1c(N(CC(=O)[O-])CC(=O)[O-])sc(C(=O)[O-])c1CC(=O)[O-].[Sr+2].[Sr+2] [strontium ranelate, reference compound] | about 7.5 μmole/L |  | 140 to 150 |

From patent US20240261351A1, “COMPOSITIONS AND METHODS FOR THE TREATMENT OF BONE AND JOINT DISEASES” (priority 2021, published 2024)
